ChEMBL document CHEMBL5042514, “Picolylamine-functionalized benz[e]indole squaraine dyes: Synthetic approach, characterization and in vitro efficacy as potential anticancer phototherapeutic agents” (Eur J Med Chem, 2022)
Calls of active or inactive are those of the source. No cut-off for these calls is given here.

How the values were obtained:
[1] = Phototoxicity against human HeLa cells assessed as reduction in cell viability preincubated for 24 hrs followed by 7 mins of LED light irradiation by MTT assay; type: toxicity, cell-based; conditions: light or radiation study
HeLa [2] = test: Induction of cell cycle arrest in human HeLa cells assessed as accumulation in G2/M phase at 0.25 uM by PI staining based flow cytometry analysis (reference value: 4.79 %); type: functional
Albumin = Albumin (Homo sapiens, UniProt P02768); test: Binding affinity to human serum albumin assessed as binding constant by fluorescence based assay
Chain of Albumin (P02768 whole entry): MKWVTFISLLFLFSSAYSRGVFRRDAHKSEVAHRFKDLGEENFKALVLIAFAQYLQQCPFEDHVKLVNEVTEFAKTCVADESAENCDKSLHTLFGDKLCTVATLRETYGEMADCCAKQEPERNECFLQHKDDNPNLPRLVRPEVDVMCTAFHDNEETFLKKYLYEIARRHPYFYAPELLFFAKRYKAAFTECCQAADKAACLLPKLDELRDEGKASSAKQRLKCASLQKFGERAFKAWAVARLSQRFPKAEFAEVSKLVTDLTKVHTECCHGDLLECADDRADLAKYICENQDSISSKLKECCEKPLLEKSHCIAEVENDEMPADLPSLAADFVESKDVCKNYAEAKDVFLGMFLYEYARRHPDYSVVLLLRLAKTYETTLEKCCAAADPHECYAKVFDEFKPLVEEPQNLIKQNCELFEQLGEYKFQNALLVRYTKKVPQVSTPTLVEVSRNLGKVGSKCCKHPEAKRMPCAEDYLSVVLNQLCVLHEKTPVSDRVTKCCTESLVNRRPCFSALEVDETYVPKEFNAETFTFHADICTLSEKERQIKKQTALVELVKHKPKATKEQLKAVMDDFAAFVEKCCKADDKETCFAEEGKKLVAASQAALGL

[3] = Selectivity ratio of IC50 for phototoxicity against human NHDF cells upon LED light irradiation to IC50 for phototoxicity against human MCF7 cells upon LED light irradiation; type: toxicity, cell-based; conditions: NHDF cells versus MCF7 cells, read-out: Ratio IC50
[4] = Dark toxicity against human PC-3 cells assessed as reduction in cell viability incubated for 24 hrs by MTT assay; type: cell-based
HeLa [5] = test: Induction of cell cycle arrest in human HeLa cells assessed as accumulation in S phase at 0.25 uM by PI staining based flow cytometry analysis (reference value: 32.14 %); type: functional
HeLa [6] = test: Induction of morphological change in human HeLa cells assessed as reduction in adhesion at 0.25 uM preincubated for 24 hrs followed by 7 mins of LED light irradiation and measured upto 48 hrs by microscopic analysis; type: functional, cell-based; conditions: time min <=4327
HeLa [7] = test: Induction of cell cycle arrest in human HeLa cells assessed as accumulation in S phase at 0.25 uM with red light radiation for 7 mins by PI staining based flow cytometry analysis (reference value: 32.09 %); type: functional
HeLa [8] = test: Induction of morphological change in human HeLa cells assessed as rounded cell morphology at 0.25 uM preincubated for 24 hrs followed by 7 mins of LED light irradiation and measured upto 48 hrs by microscopic analysis; type: functional, cell-based; conditions: time min <=4327
[9] = Dark toxicity against human Caco-2 cells assessed as reduction in cell viability incubated for 24 hrs by MTT assay; type: cell-based
[10] = Phototoxicity against human MCF7 cells assessed as reduction in cell viability preincubated for 24 hrs followed by 7 mins of LED light irradiation by MTT assay; type: toxicity, cell-based; conditions: MCF7, light or radiation study
[11] = Phototoxicity against human NHDF cells assessed as reduction in cell viability preincubated for 24 hrs followed by 7 mins of LED light irradiation by MTT assay; type: toxicity, cell-based
[12] = Dark toxicity against human NHDF cells assessed as reduction in cell viability incubated for 24 hrs by MTT assay; type: cell-based
[13] = Phototoxicity against human PC-3 cells assessed as reduction in cell viability preincubated for 24 hrs followed by 7 mins of LED light irradiation by MTT assay; type: toxicity, cell-based; conditions: PC-3, light or radiation study
HeLa [14] = test: Induction of cell cycle arrest in human HeLa cells assessed as accumulation in G0/G1 phase at 0.25 uM with red light radiation for 7 mins by PI staining based flow cytometry analysis (reference value: 63.18%); type: functional
[15] = Phototoxicity ratio of IC50 for cytotoxicity against human MCF7 cells assessed as reduction in cell viability in dark to IC50 for phototoxicity against human MCF7 cells upon LED light irradiation; type: toxicity, cell-based
HeLa [16] = test: Induction of apoptosis in human HeLa cells assessed as increase in DNA cleavage at 1 uM preincubated for 24 hrs followed by 7 mins LED light irradiation and measured after 24 hrs by PI staining based flow cytometry analysis; type: functional; conditions: time 2887 min, 48.12 h
[17] = Phototoxicity ratio of IC50 for cytotoxicity against human Caco-2 cells assessed as reduction in cell viability in dark to IC50 for phototoxicity against human Caco-2 cells upon LED light irradiation; type: toxicity, cell-based
[18] = Phototoxicity against human Caco-2 cells assessed as reduction in cell viability preincubated for 24 hrs followed by 7 mins of LED light irradiation by MTT assay; type: toxicity, cell-based; conditions: Caco-2, light or radiation study
[19] = Drug localization in lysosome of human HeLa cells at 1 uM incubated for 24 hrs by Green Fluorescent Protein based confocal laser scanning microscopy analysis; type: ADME, subcellular
[20] = Phototoxicity ratio of IC50 for cytotoxicity against human HeLa cells assessed as reduction in cell viability in dark to IC50 for phototoxicity against human HeLa cells upon LED light irradiation; type: toxicity, cell-based
[21] = Selectivity ratio of IC50 for phototoxicity against human NHDF cells upon LED light irradiation to IC50 for phototoxicity against human HeLa cells upon LED light irradiation; type: toxicity, cell-based; conditions: NHDF cells versus HeLa cells, read-out: Ratio IC50
HeLa [22] = test: Induction of cell cycle arrest in human HeLa cells assessed as accumulation in G0/G1 phase at 1 uM by PI staining based flow cytometry analysis (reference value: 67.03 %); type: functional
[23] = Selectivity ratio of IC50 for phototoxicity against human NHDF cells upon LED light irradiation to IC50 for phototoxicity against human PC-3 cells upon LED light irradiation; type: toxicity, cell-based; conditions: NHDF cells versus PC-3 cells, read-out: Ratio IC50
HeLa [24] = test: Induction of apoptosis in human HeLa cells at 0.25 uM preincubated for 24 hrs followed by 7 mins LED light irradiation and measured after 24 hrs by PI staining based flow cytometry analysis; type: functional; conditions: time 2887 min, 48.12 h
[25] = Selectivity ratio of IC50 for phototoxicity against human NHDF cells upon LED light irradiation to IC50 for phototoxicity against human Caco-2 cells upon LED light irradiation; type: toxicity, cell-based; conditions: NHDF cells versus Caco-2 cells, read-out: Ratio IC50
[26] = Drug localization in mitochondria of human HeLa cells at 1 uM incubated for 24 hrs by Rhodamine 123 based confocal laser scanning microscopy analysis; type: ADME
[27] = Phototoxicity ratio of IC50 for cytotoxicity against human NHDF cells assessed as reduction in cell viability in dark to IC50 for phototoxicity against human NHDF cells upon LED light irradiation; type: toxicity, cell-based; conditions: read-out: Ratio IC50
HeLa [28] = test: Induction of morphological change in human HeLa cells assessed as cell shrinkage at 0.25 uM preincubated for 24 hrs followed by 7 mins of LED light irradiation and measured upto 48 hrs by microscopic analysis; type: functional, cell-based; conditions: time min <=4327
HeLa [29] = test: Induction of cell cycle arrest in human HeLa cells assessed as accumulation in G2/M phase at 0.25 uM with red light radiation for 7 mins by PI staining based flow cytometry analysis (reference value: 4.73 %); type: functional
HeLa [30] = test: Induction of cell cycle arrest in human HeLa cells assessed as accumulation in G0/G1 phase at 0.25 uM by PI staining based flow cytometry analysis (reference value: 67.03 %); type: functional
HeLa [31] = test: Induction of cell cycle arrest in human HeLa cells assessed as accumulation of hypodiploid cells in sub-G1 phase at 0.25 to 1 uM measured after 24 hrs in the absence of light by PI staining based flow cytometry analysis; type: functional; conditions: dose 0.25-1 µM
[32] = Phototoxicity ratio of IC50 for cytotoxicity against human PC-3 cells assessed as reduction in cell viability in dark to IC50 for phototoxicity against human PC-3 cells upon LED light irradiation; type: toxicity, cell-based
HeLa [33] = test: Induction of cell cycle arrest in human HeLa cells assessed as accumulation in S phase at 1 uM by PI staining based flow cytometry analysis (reference value: 32.14 %); type: functional
HeLa [34] = test: Induction of morphological change in human HeLa cells assessed as intracellular space dilation at 1 uM preincubated for 24 hrs followed by 7 mins of LED light irradiation and measured upto 48 hrs by microscopic analysis; type: functional, cell-based; conditions: time min <=4327
HeLa [35] = test: Induction of cell cycle arrest in human HeLa cells assessed as accumulation in G2/M phase at 1 uM by PI staining based flow cytometry analysis (reference value: 4.79 %); type: functional
HeLa [36] = test: Induction of morphological change in human HeLa cells assessed as plasma membrane rupture at 1 uM preincubated for 24 hrs followed by 7 mins of LED light irradiation and measured upto 48 hrs by microscopic analysis; type: functional; conditions: time min <=4327
[37] = Dark toxicity against human HeLa cells assessed as reduction in cell viability incubated for 24 hrs by MTT assay; type: cell-based
[38] = Dark toxicity against human MCF7 cells assessed as reduction in cell viability incubated for 24 hrs by MTT assay; type: cell-based
HeLa [39] = test: Induction of cell cycle arrest in human HeLa cells assessed as accumulation in G2/M phase at 0.24 uM by PI staining based flow cytometry analysis (reference value: 4.79 %); type: functional
HeLa [40] = test: Induction of cell cycle arrest in human HeLa cells assessed as accumulation in G2/M phase at 0.24 uM with red light radiation for 7 mins by PI staining based flow cytometry analysis (reference value: 4.73 %); type: functional
HeLa [41] = test: Induction of cell cycle arrest in human HeLa cells assessed as accumulation in S phase at 0.24 uM by PI staining based flow cytometry analysis (reference value: 32.14 %); type: functional
HeLa [42] = test: Induction of apoptosis in human HeLa cells at 0.24 uM preincubated for 24 hrs followed by 7 mins LED light irradiation and measured after 24 hrs by PI staining based flow cytometry analysis; type: functional; conditions: time 2887 min, 48.12 h
[43] = Genotoxicity in human HeLa cells assessed as genetic damage index at 1 uM measured after 24 hrs in absence of light by alkali comet assay; type: toxicity, cell-based
HeLa [44] = test: Induction of cell cycle arrest in human HeLa cells assessed as accumulation in G0/G1 phase at 0.24 uM with red light radiation for 7 mins by PI staining based flow cytometry analysis (reference value: 63.18 %); type: functional
HeLa [45] = test: Induction of cell cycle arrest in human HeLa cells assessed as accumulation in S phase at 0.24 uM with red light radiation for 7 mins by PI staining based flow cytometry analysis (reference value: 32.09 %); type: functional
HeLa [46] = test: Induction of cell cycle arrest in human HeLa cells assessed as accumulation in G0/G1 phase at 0.24 uM by PI staining based flow cytometry analysis (reference value: 67.03 %); type: functional

SMILES: CCN1/C(=C/C2=C([O-])C(=C/C3=[N+](CC)c4ccc5ccccc5c4C3(C)C)/C2=O)C(C)(C)c2c1ccc1ccccc21
- IC50 [1]: 245 nM
- Activity (HeLa [2]): 5.19%
- Kb (Albumin): 2.01 10^5/M
- selectivity ratio [3]: 0.96
- IC50 at 24 h [4]: > 10000 nM
- Activity (HeLa [5]): 25.84%
- Activity (HeLa [6]): Active
- Activity (HeLa [7]): 31.5%
- Activity (HeLa [8]): Active
- IC50 at 24 h [9]: > 10000 nM
- IC50 [10]: 232 nM
- IC50 at 24 h [11]: 222 nM
- IC50 at 24 h [12]: > 10000 nM
- IC50 [13]: 190 nM
- Activity (HeLa [14]): 58.79%
- Ratio IC50 [15]: > 43.1
- Activity (HeLa [16]): 98%
- Ratio IC50 [17]: > 30.1
- IC50 [18]: 332 nM
- Drug uptake [19]: Not Active
- Ratio IC50 [20]: > 40.8
- selectivity ratio [21]: 0.91
- Activity (HeLa [22]): 70.47%
- selectivity ratio [23]: 1.17
- Activity (HeLa [24]): 17%
- selectivity ratio [25]: 0.67
- Drug uptake [26]: Active
- selectivity ratio [27]: > 45
- Activity (HeLa [28]): Active
- Activity (HeLa [29]): 9.71%
- Activity (HeLa [30]): 68.96%
- Activity (HeLa [31]): 1%
- Ratio IC50 [32]: > 52.6
- Activity (HeLa [33]): 25.92%
- Activity (HeLa [34]): Active
- Activity (HeLa [35]): 3.61%
- Activity (HeLa [36]): Active
- IC50 at 24 h [37]: > 10000 nM
- IC50 at 24 h [38]: > 10000 nM

SMILES: CCN1/C(=C/C2=C(NCc3ccccn3)C(=C/C3=[N+](CC)c4ccc5ccccc5c4C3(C)C)/C2=O)C(C)(C)c2c1ccc1ccccc21.[I-]
- IC50 [1]: 240 nM
- Activity (HeLa [39]): 4%
- Kb (Albumin): 6.93 10^5/M
- selectivity ratio [3]: 1.59
- Activity (HeLa [40]): 15.95%
- IC50 at 24 h [4]: 2070 nM
- Activity (HeLa [6]): Active
- Activity (HeLa [8]): Active
- IC50 at 24 h [9]: 2020 nM
- IC50 [10]: 165 nM
- IC50 at 24 h [11]: 263 nM
- IC50 at 24 h [12]: 2130 nM
- Activity (HeLa [41]): 22.04%
- Activity (HeLa [42]): 2%
- IC50 [13]: 87 nM
- Activity [43]: 24 a.u.
- Ratio IC50 [15]: 9.8
- Activity (HeLa [16]): 68%
- Ratio IC50 [17]: 21.9
- IC50 [18]: 92 nM
- Drug uptake [19]: Not Active
- Ratio IC50 [20]: 9.1
- Activity (HeLa [44]): 67.14%
- selectivity ratio [21]: 1.1
- Activity (HeLa [22]): 68.34%
- selectivity ratio [23]: 3.02
- selectivity ratio [25]: 2.86
- Drug uptake [26]: Active
- selectivity ratio [27]: 8.1
- Activity (HeLa [28]): Active
- Activity (HeLa [45]): 16.91%
- Ratio IC50 [32]: 23.8
- Activity (HeLa [33]): 26.68%
- Activity (HeLa [46]): 73.97%
- Activity (HeLa [34]): Active
- Activity (HeLa [35]): 4.98%
- Activity (HeLa [36]): Active
- IC50 at 24 h [37]: 2180 nM
- IC50 at 24 h [38]: 1610 nM
